Key:
[1] = system: 11β-HSD type 1; test: Inhibition of conversion of prednisone to prednisolone after single administration to cynomolgus monkeys; format: in vivo
Experimental: The protocol used is described by Bhat et al. (J. Pharmacol. Exp. Ther. 324, 299-305, 2008).
(§1) Briefly, the study is carried out in naive adult male cynomolgus monkeys fasted overnight. The 11β-HSD type 1 inhibitor or its vehicle (0.5% methylcellulose in water) is administered via nasogastric intubation. Two hours later, a challenge with orally administered prednisone (10 mg/kg) is performed and blood samples are taken regularly for 24 hours. These samples are centrifuged to obtain plasma and immediately frozen at −70° C. until bioanalysis. Plasma levels of prednisone, prednisolone and 11β-HSD type 1 inhibitors are measured by LC-MS/MS analytical methods.
(§2) The study is carried out over a period of 10 weeks. Profiles of plasma concentration as a function of time and areas under the curve are calculated using the trapezoidal method for all parameters.
The effect of Compound 1 is evaluated at three doses: 1.25, 5 and 20 mg/kg.
The effect of Compound 1K is evaluated at three doses: 20, 40 and 80 mg/kg. The protocol is quite similar to the preceding, except that only 5 blood samples were taken per monkey rather than 7. Compound 1K was also evaluated over a period of 10 weeks.
The 11β-HSD type 1 activity-dependent conversion of prednisone to prednisolone was evaluated. Compound 2K inhibits roughly 50% this activity at a dose of 20 mg/kg (FIG. 2A). FIG. 2 represents the effects of Compound 2K, at the three doses tested, on plasma prednisolone/prednisone ratio calculated with the area under the curve between 30 minutes and 4 hours (panel A) and on plasma exposure during the 6-hour experimental period (panel B); the results obtained with Compound 1K at a dose of 5 mg/kg are compared in the two panels.

[2] = Clinical and behavioral signs in cynomolgus monkeys during the prednisone challenge studies; format: in vivo; details: study no. 2, 20, 40 and 80 mg/kg, even at 80 mg/kg
Experimental: as §1, §2

## CN1C(C(=O)c2ccc3ccccc3c2)=C([O-])c2ccccc2S1(=O)=O.[K+] [Compound 1K, potassium 3-(2-naphthoyl)-2-methyl-2H-benzo[e][1,2]thiazin-4-olate 1,1-dioxide]
[1]; 20 mg/kg, prednisone 10 mg/kg 2 h later
  inhibition of plasma prednisolone/prednisone ratio of AUC (30 minutes to 4 hours): 81%
[1]; 40 mg/kg
  inhibition of conversion of prednisone to prednisolone (prednisolone/prednisone AUC ratio): 79%
[1]; 80 mg/kg
  inhibition of conversion of prednisone to prednisolone (prednisolone/prednisone AUC ratio): 89%
[1]; all the doses tested (20, 40 and 80 mg/kg), 5 animals per group
  "maximum" inhibition of plasma prednisolone/prednisone ratio of AUC (30 minutes to 4 hours): at least 80%
[2]
  clinical or behavioral sign: No particular clinical or behavioral sign

Reference: patent US20180140609A1, “USE OF (4-HYDROXY-2-METHYL-1,1-DIOXIDO-2H-BENZO[E][1,2]THIAZINE-3-YL)(NAPHTHALENE-2-YL) METHANONE IN THE PREVENTION AND/OR TREATMENT OF NON-ALCOHOLIC STEATOHEPATITIS” (PIERRE FABRE MEDICAMENT, priority 2015, published 2018)
